From US7767398B2, “Means and methods for diagnosing and treating affective disorders” (Affectis Pharmaceuticals AG, priority 2003, dated 2010)

How the values were obtained:
P2X7R [1] = settings: cited from earlier work
other P2X receptors = settings: cited from earlier work
mice = experiment: Porsolt's forced swim test; assay type: in vivo, mouse
Experimental: Further validation of role of P2X7R in affective disorders was performed by examining its expression pattern in response to stress and treatment with antidepressant drugs. […] In parallel, a control group of mice was given vehicle solution (i.e. without paroxetine) using the same treatment regiment while a second control group of mice was left undisturbed and stress-free (i.e. untreated) during the same period of the experiments. At the end of the long-term treatment, part of the mice of each experimental group were tested in the dark/light box (test of anxiety behaviour) and in the Porsolt's forced swim test (test of depressive-like behaviour) to confirm the effectiveness of the treatment (FIG. 5). […] The other part of the experimental groups (i.e. mice without test experience) were decapitated, brains rapidly removed and frozen at −80° C. until usage.
The effects of P2X7R inhibition on depressive-like behaviour was assessed 24 hours and 48 hours after infusion of siRNA, control or vehicle according to the standard test paradigm, the Porsolt's forced swim test (Porsolt et al., Arch. Int. Pharmacodym. 229 (1977), 327-336; Porsolt, Rev. Neurosci. 11 (2000), 53-58). […] Compared to vehicle application, no influence of control double stranded RNA (5′-[…]-3′) on floating behaviour (passive stress coping) was detected. […] This interpretation becomes moreover evident when the effects of antidepressants on passive stress coping behaviour in the forced swim test are visualized (FIG. 5). Passive stress coping behaviour increased after acute intrahippocampal injection (bilateral, dentate gyrus) of siRNA targeting P2X7R. The Porsolt's forced swim test is a standard test used to assess the effectiveness of antidepressants and it has been proven by many studies that the test is selectively sensitive for these effects, given that the right animal model is used. The paradigm has been widely used to test pharmaceutical compounds and to validate animal models of depression, which show an increase in passive behaviour as do the mice where P2X7R has been inhibited (siRNA).
The forced swim test is a standard test that measures primary stress-induced reductions in avoidance or escape, termed behavioural despair. The test is used to determine the effectiveness of antidepressants, test new pharmaceutical compounds and validate animal models of depression (Porsolt et al., Arch. Int. Pharmacodym. 229 (1977), 327-336; Porsolt, Rev. Neurosci. 11 (2000), 53-58; Rénéric et al., Behav. Brain Res. 136 (2002), 521-532; Page et al., Psychopharmacology 165 (2003), 194-201; Kelliher et al., Psychoneuroendocrinology 28 (2003), 332-347). The test consists of placing a mouse for a period of 5 minutes into a glass cylinder containing water. Under such circumstances, the mouse cannot touch the bottom of the cylinder and is thus forced to swim. Time, latency and frequency of struggling versus floating are scored as behavioural parameters. […] Increased struggling (i.e. active attempts to escape) indicates active coping behaviour that can be interpreted as an improvement of depression-like symptoms. For example, treatment with serotonergic antidepressants reduce the total time spent floating (Borsini, Neurosci. Biobehav. Rev. 19 (1995), 377-395; Redrobe and Bourin, Psychopharmacology 138 (1998), 198-206, and in parallel increases the time of active behaviour (i.e. swimming or struggling; Lucki et al., Psychopharmacology 155 (2001), 315-322).
The behaviour of individual mice was assessed using the Porsolt's forced swim test 24 hours after injection of vehicle solution, KN-62, or oATP. A pre-exposure of 5 minutes to the test was performed 15-17 minutes after administration of vehicle, KN-62, or oATP. A description of the Porsolt's forced swim test is given in example 9. […]

P2X7R [2] = assay type: in vivo, mouse
Experimental: The brains from stress-free mice were shock frozen, cut into 16 μm slices and fixed with paraformaldehyde for 5 minutes. The sections were blocked for 30 minutes at room temperature with 1:10 horse serum. All antibodies were diluted in TBST buffer (Tris-buffered saline with 0.05% Tween-20). The first antibody was used in a dilution 1:200 and incubated overnight. All washes were performed with TBST buffer. As a secondary antibody, an anti-goat IgG biotinylated (Vector Laboratories) was used and detection was performed using the streptavidin-biotin-horse-radish peroxidase complex system (Vector Laboratories) in combination with diaminobencidine. Slides were counterstained with toluidine blue using standard procedures. The same procedure in the absence of the primary antibody was performed as a negative control. As a positive control to test the Preservation of the tissue was verified with an antibody specific for the protein Patched1 (Santa Cruz Biotechnology). Patched1 was used as positive control since it stains all relevant brain structures and is not affected by stress or antidepressants.
At the end of the experiment, the mice were sacrificed and the brains were examined to confirm the location and efficiency of the siRNA injections. For this purpose the brains were cut into sections and the slides were stained by immunohistochemistry using the above mentioned protocols. […]

human P2X7R = target: T1, human P2X7R (Homo sapiens, UniProt Q99572); experiment: Calcium entry in HT-22 cells overexpressing human P2X7R (Fluo-4 AM); assay type: cell-based; settings: 20 μM BzATP or 50 μM tenidap
T1 construct: expressed in transfected cells
T1 sequence (Q99572 1-595): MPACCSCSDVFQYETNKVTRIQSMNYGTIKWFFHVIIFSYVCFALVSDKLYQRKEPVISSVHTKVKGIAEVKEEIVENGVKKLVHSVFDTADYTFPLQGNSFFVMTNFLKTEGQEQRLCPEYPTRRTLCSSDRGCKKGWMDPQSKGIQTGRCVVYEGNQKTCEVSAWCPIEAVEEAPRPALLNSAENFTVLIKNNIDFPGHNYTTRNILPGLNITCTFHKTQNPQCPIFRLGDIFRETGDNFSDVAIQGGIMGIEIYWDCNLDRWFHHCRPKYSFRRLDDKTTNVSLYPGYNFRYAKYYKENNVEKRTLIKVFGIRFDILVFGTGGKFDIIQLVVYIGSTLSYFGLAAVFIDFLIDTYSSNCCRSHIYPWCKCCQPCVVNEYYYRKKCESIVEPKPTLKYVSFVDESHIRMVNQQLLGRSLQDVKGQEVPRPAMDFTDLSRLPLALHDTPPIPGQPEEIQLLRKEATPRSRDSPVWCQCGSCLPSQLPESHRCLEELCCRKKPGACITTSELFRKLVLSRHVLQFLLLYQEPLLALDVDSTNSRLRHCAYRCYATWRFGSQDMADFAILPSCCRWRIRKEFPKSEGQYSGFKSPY
Excerpt: Yet another method for identifying P2X7R agonists was devised by generating a immortalised mouse cell line that overexpresses the human P2X7R gene under the control of the human cytomegalovirus (CMV) early promoter/enhancer region. The human P2X7R cDNA was inserted into the pcDNA3.1 vector (Invitrogen) and transfected into the mouse hippocampal cell line HT-22 using Lipofectamine (Invitrogen) according to the manufacturer's specifications. One day after transfection, culture medium containing 500 μg/ml G418 was added to the cells. Resistant clones were separately isolated and cultured 14 days after applying the selection medium.
The agonistic activity of a compound was evaluated by measuring calcium entry in the cells that overexpress the human P2X7R. Cells were cultured in 96 well plates and incubated at 37° C. with 5% C02 DMEM with 10% foetal calf serum (Gibco) until they reached confluence. Cells were then loaded for one hour with 10 μM of Fluo4 AM (Molecular Probes). Fluo-4 AM is a fluorescent dye that binds to intracellular calcium. […] Agonist activity was detected by measuring an increase in calcium influx which results in increased binding to Fluo4 AM and increased fluorescence. Changes in fluorescence signal are measured using a Fluostar Optima plate reader (BMG biotech). […] Thus, both compound stimulated the activity of P2X7R which results in an influx of ions into the cells.

P2X7R [3] = target: T2, P2X7R (Rattus norvegicus, UniProt Q64663); settings: concentrations of 10 to 300 μM; cited from earlier work
T2 sequence (Q64663 1-595): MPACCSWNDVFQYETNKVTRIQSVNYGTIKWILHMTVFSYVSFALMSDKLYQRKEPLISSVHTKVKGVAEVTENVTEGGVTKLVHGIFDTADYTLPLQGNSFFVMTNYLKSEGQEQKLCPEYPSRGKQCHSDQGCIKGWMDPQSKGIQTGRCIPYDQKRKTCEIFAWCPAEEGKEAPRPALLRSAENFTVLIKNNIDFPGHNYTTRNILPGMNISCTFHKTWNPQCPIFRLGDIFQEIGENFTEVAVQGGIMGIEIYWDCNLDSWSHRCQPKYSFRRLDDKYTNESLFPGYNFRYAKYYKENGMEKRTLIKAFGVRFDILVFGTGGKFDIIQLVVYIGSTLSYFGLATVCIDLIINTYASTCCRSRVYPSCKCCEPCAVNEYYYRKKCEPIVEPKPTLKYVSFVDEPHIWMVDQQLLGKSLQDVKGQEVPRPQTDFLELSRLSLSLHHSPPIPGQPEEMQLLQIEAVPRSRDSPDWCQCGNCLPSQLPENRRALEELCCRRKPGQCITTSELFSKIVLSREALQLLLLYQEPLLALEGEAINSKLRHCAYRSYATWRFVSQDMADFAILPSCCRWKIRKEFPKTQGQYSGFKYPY

[4] = 100 nM KN-62 or 10 μM oATP, 1 μl each side, dentate gyrus, 24 hours after injection, DBA/201a mice

Molecule: Nc1ncnc2c1ncn2[C@@H]1O[C@H](COP(=O)(O)OP(=O)(O)OP(=O)(O)O)[C@@H](O)[C@H]1O [ATP]
- levels of ATP required to achieve activation of P2X7R (P2X7R [1]): > 1 mM
- ATP concentrations at which other P2X receptors activate (other P2X receptors): ≤ 100 µM

Molecule: CN([C@@H](Cc1ccc(OS(=O)(=O)c2cccc3cnccc23)cc1)C(=O)N1CCN(c2ccccc2)CC1)S(=O)(=O)c1cccc2cnccc12 [KN-62, 1-(N,O-bis[5-isoquinolinesulphonyl]-N-methyl-L-tyrosyl)-4-phenylpiperazine]
- active escape attempts (time, frequency, latency of struggling) in the forced swim test (mice; [4]): no changes
- passive behaviour (time, frequency, latency of floating) in the forced swim test (mice; [4]): no changes

Molecule: P2X7R specific siRNA: double stranded siRNA, 5′-GUGGGUCUUGCACAUGAUCTT-3′ and 5′-GAUCAUGUGCAAGACCCACTT-3′ annealed (chemistry not given here)
- local inflammation or infiltration at the hippocampus (P2X7R [2]; mouse, in vivo): did not produce any sign of local inflammation or infiltration
- inhibition of P2X7R protein expression (P2X7R [2]; siRNA injected near the dentate gyrus, compared to vehicle or control double stranded RNA): 80%
- floating behaviour (passive stress coping) in the forced swim test (mice; intrahippocampal bilateral (dentate gyrus), 0.1 nmol/μl, 1 μl per side, 24 hours and 48 hours after infusion): significant increase in passive behaviour

Molecule: NC(=O)N1C(=O)/C(=C(\O)c2cccs2)c2cc(Cl)ccc21 [tenidap, 5-chloro-2,3-dihydro-2-oxo-3-(2-thienylcarbonyl)-indole-1-carboxamide]
- calcium influx (Fluo-4 AM fluorescence intensity) (human P2X7R): rapid increase in fluorescence intensity

Molecule: CC(CCc1ccccc1)NCC(O)c1ccc(O)c(C(N)=O)c1 (stereo not drawn) [labetolol]
- opening of the cation channel activity of P2X7R (P2X7R [3]): without affecting
- pore-forming activity of P2X7R (P2X7R [3]): inhibit the pore-forming activity

Molecule: CC(C)NCC(O)COc1cccc2ccccc12 (racemic) [DL-propanolol]
- opening of the cation channel activity of P2X7R (P2X7R [3]): without affecting
- pore-forming activity of P2X7R (P2X7R [3]): inhibit the pore-forming activity

Molecule: Fc1ccc([C@@H]2CCNC[C@H]2COc2ccc3c(c2)OCO3)cc1 [paroxetine]
- passive stress coping behaviour (floating) in the forced swim test (mice; paroxetine by gavage, 10 mg/kg bodyweight twice per day, 28 days, male mice): decreased

Molecule: CC(C)NC[C@@H](O)COc1cccc2ccccc12 [D-propanolol]
- opening of the cation channel activity of P2X7R (P2X7R [3]): without affecting
- pore-forming activity of P2X7R (P2X7R [3]): inhibit the pore-forming activity
